15 compounds from patent US9115101B2 (Genentech, Inc., priority 2012, dated 2015) can be followed below.

Read-outs that look alike come from different tables or passages of the source.

For the experiment, the target named is T1, RORc ligand binding domain (Homo sapiens, UniProt P51449).
T1 construct: host or cells: E. coli
T1 sequence (P51449 269-508 limits assumed): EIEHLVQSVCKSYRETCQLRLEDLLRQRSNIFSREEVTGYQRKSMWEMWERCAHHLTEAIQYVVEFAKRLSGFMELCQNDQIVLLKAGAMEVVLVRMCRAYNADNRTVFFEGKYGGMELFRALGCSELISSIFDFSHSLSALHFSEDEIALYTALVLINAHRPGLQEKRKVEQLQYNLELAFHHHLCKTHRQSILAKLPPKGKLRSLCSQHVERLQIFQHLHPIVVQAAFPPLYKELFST
Nature of the experiment: In Vitro RORc Ligand Binding Assay (25-[3H]hydroxycholesterol radioligand filtration). The note with it: read-out: RORc IC50.

The mark [1] stands for this setting: In Vitro RORc Ligand Binding Assay, Table 4.

A word on the IC50: it is the midpoint of a concentration-inhibition curve. On to `C[C@H]1CCC(c2ccccc2)S(=O)(=O)N1Cc1ccc(N2CCC(c3nnc[nH]3)CC2)cc1F` (single isomer, unassigned) [Example 225], for which the IC50 under setting [1] turned out to be 0.15 µM.

Turning to `CC(=O)N1CCN(c2ccc(CN3C[C@H](C)OCC(c4ccccc4)S3(=O)=O)c(F)c2)CC1` (single isomer, unassigned) [Example 28], under setting [1], the 50% inhibitory concentration (IC50) turned out to be 0.104 µM.

Take `C[C@H]1CCC(c2ccccc2)S(=O)(=O)N1Cc1ccc(C(=O)NC2CCCC(O)C2)cc1` (stereo partly drawn) [Example 273, N-(3-Hydroxy-cyclohexyl)-4-((3S)-methyl-1,1-dioxo-6-phenyl-[1,2]thiazinan-2-ylmethyl)-benzamide]: the IC50 under setting [1] was determined as 5.47 µM.

Regarding `C[C@H]1CCC(c2ccccc2)S(=O)(=O)N1Cc1ccc(N2CCN(C(=O)C3CC3)CC2)cc1` (single isomer, unassigned) [Example 60], under setting [1], the 50% inhibitory concentration (IC50) turned out to be 0.015 µM.

With `C[C@H]1CCC(c2ccccc2)S(=O)(=O)N1Cc1ccc(C(=O)N2C3CNC(=O)C2C3)cc1` (stereo partly drawn) [Example 360, 6-[4-((3S)-Methyl-1,1-dioxo-6-phenyl-[1,2]thiazinan-2-ylmethyl)-benzoyl]-3,6-diaza-bicyclo[3.1.1]heptan-2-one], the concentration for half-maximal inhibition (IC50) under setting [1] is 3.45 µM.

`CC(=O)N1CCN(c2ccc(CN3CC(C)CC(c4ccccc4)S3(=O)=O)c(F)c2)CC1` (single isomer, unassigned) [Example 118, 1-{4-[3-Fluoro-4-(4-methyl-1,1-dioxo-6-phenyl-[1,2]thiazinan-2-ylmethyl)-phenyl]-piperazin-1-yl}-ethanone]: the half-maximal inhibitory concentration (IC50) under setting [1] is 0.02 µM.

In the case of `O=S1(=O)C(c2ccccc2)CCCCN1Cc1ccc(N2CCC(n3cnnc3)CC2)cc1F` (single isomer, unassigned) [Example 323, 2-[2-Fluoro-4-(4-[1,2,4]triazol-4-yl-piperidin-1-yl)-benzyl]-7-phenyl-[1,2]thiazepane 1,1-dioxide], under setting [1], the half-maximal inhibitory concentration (IC50) came to 0.002 µM.

Take `CC(=O)N1CCN(c2ccc(CN3[C@@H](C)CCC(c4cccc(Cl)c4)S3(=O)=O)c(F)c2)CC1` (single isomer, unassigned) [Example 185]: the IC50 under setting [1] was determined as 0.025 µM.

Take `CC(=O)N1CCN(c2ccc(CN3[C@@H](C)CCC(c4ccccc4)S3(=O)=O)cc2C)CC1` (single isomer, unassigned) [Example 130]: the IC50 under setting [1] was 0.072 µM.

Consider `CC(=O)N1CCN(c2ccc(CN3[C@H](C)CCCC(c4ccccc4)S3(=O)=O)c(F)c2)CC1` (single isomer, unassigned) [Example 321], for which, under setting [1], the IC50 came out at 0.016 µM.

As for `CCOC(=O)c1ncc2n1CCN(c1ccc(CN3[C@@H](C)CCC(c4ccccc4)S3(=O)=O)c(F)c1)C2` (stereo partly drawn) [Example 397, 7-[3-Fluoro-4-((3S)-methyl-1,1-dioxo-6-phenyl-[1,2]thiazinan-2-ylmethyl)-phenyl]-5,6,7,8-tetrahydro-imidazo[1,5-a]pyrazine-3-carboxylic acid ethyl ester], the IC50 under setting [1] amounted to 0.872 µM.

Regarding `CC(=O)N1CCN(c2ccc(CN3[C@@H](C)CCC(c4ccccc4)S3(=O)=O)c(F)c2)C[C@@H]1C#N` (stereo partly drawn) [Example 376, (R)-1-Acetyl-4-[3-fluoro-4-((3S)-methyl-1,1-dioxo-6-phenyl-[1,2]thiazinan-2-ylmethyl)-phenyl]-piperazine-2-carbonitrile], the IC50 under setting [1] was 0.078 µM.

On to `C[C@H]1CCC(c2ccccc2)S(=O)(=O)N1Cc1ccc(OCC2CC2)cc1` (stereo partly drawn) [Example 431, 2-(4-Cyclopropylmethoxy-benzyl)-(3S)-methyl-6-phenyl-[1,2]thiazinane 1,1-dioxide], for which the IC50 was 0.641 µM.

Consider `CO[C@@H](C)C(=O)N1CCCN(c2ccc(CN3[C@@H](C)CCC(c4ccccc4)S3(=O)=O)c(F)c2)CC1` (single isomer, unassigned) [Example 92], for which the IC50 under setting [1] came to 0.154 µM.

On to `C[C@H]1CCC(c2ccccc2)S(=O)(=O)N1Cc1ccc(N2CCC(c3ccn[nH]3)CC2)cc1F` (single isomer, unassigned) [Example 211], for which the IC50 under setting [1] was 0.02 µM.
